Entries after “also recorded” stand apart in the source; their conditions may differ.
Assays:
[1] = system: obese, stressed patients; assay: CES-D test of current levels of emotional distress in patients; assay type: in vivo, human; conditions: for CES-D Mood Score: over the treatment period
Text: (§1) A subgroup of obese individuals is identified, which individuals describe themselves as being unable to control their eating and who attempt to continue on a weight-reducing diet when experiencing emotional distress. […]
(§2) Objective measurements of emotional distress are made in some patients using the CES-D (Center for […] Depression Form) test, which measures current levels of emotional distress (Radloff, et al., The CES-D Scale: A Self Report Depression Scale for Research in the General Population Applied Psychological Measurement 1: 385-401, 1977); and the POMS (Profile of Mood States test, that assesses tension, depression, anger and confusion (McNair, et al., Profile of Mood States Manual;San Diego: Educational and Industrial Testing Service, 1971); both of these references are hereby incorporated by reference in their entirety. These tests are also given monthly during the treatment period. At the same time, patients also complete questionnaires that ask the patients to rate their appetite and hunger, and also to rate their tendency to eat in response to a variety of emotional and stressful triggers. The patients are also weighed monthly.

[2] = system: obese, stressed patients; assay: questionnaire rating appetite and hunger; assay type: in vivo, human; conditions: 30 mg/day; for Appetite and Cravings: patient six
Text: as §1, §2

[3] = system: rats; conditions: cited from earlier work; for tail pressure/tail pinch-induced eating: Rowland et al.
[4] = system: obese, stressed patients; assay: questionnaire rating tendency to eat in response to emotional and stressful triggers; assay type: in vivo, human; conditions: for emotional triggers score: over the treatment period
Text: as §1, §2

[5] = system: obese, stressed patients; assay: POMS (Profile of Mood States) test; assay type: in vivo, human; conditions: 30 mg/day, during the study period, baseline 24
Method: A subgroup of obese individuals is identified, which individuals describe themselves as being unable to control their eating and who attempt to continue on a weight-reducing diet when experiencing emotional distress. These patients are treated for four months by enrolling them in a weight loss program which includes the administration of dexfenfluramine at 30 mg/day and which involves adherence to a reduced-calorie meal plan.
as §2

[6] = body weight in four month weight loss program; assay type: in vivo, human
Text: as §1, §2

[7] = system: patient experiencing stress induced symptoms; assay: treatment of patients with stress induced symptoms with serotonin precursors (Examples 16-23); assay type: in vivo, human
[8] = patient six, 30 mg/day, Month 4, baseline 5
[9] = patient six, 30 mg/day, Month 4, baseline 23
[10] = Example 19, food based preparation, in conjunction with a serotonin agonist
[11] = Example 20, in conjunction with a stimulant of serotonin synthesis
[12] = Example 23, food based preparation
[13] = Example 22, functional food, in conjunction with a stimulant of serotonin synthesis

CCNC(C)Cc1cccc(C(F)(F)F)c1 (racemic) [D,L-fenfluramine, N-ethyl-α-methyl-3-(trifluoro-methyl)benzeneethanamine]
Mood Scores CES-D ([1]; patient six, 30 mg/day, Month 1, baseline 5): 1
Mood Scores CES-D ([1]; patient six, 30 mg/day, Month 2, baseline 5): 3
Mood Scores CES-D ([1]; patient six, 30 mg/day, Month 3, baseline 5): 2
Mood Scores CES-D [1, 8]: 1
Appetite and Cravings ([2]; Month 1, baseline 10): 2
Appetite and Cravings ([2]; Month 2, baseline 10): 5
Appetite and Cravings ([2]; Month 3, baseline 10): 5
Appetite and Cravings ([2]; Month 4, baseline 10): 4
tail pressure/tail pinch-induced eating [3]: inhibits tail pressure-induced eating
Emotional Triggers ([4]; patient six, 30 mg/day, Month 1, baseline 23): 2
Emotional Triggers ([4]; patient six, 30 mg/day, Month 2, baseline 23): 3
Emotional Triggers ([4]; patient six, 30 mg/day, Month 3, baseline 23): 2
Emotional Triggers [4, 9]: 4

CCN[C@@H](C)Cc1cccc(C(F)(F)F)c1 [dexfenfluramine]
summed Tension, Depression, Anger and Confusion scores on the POMS test [5]: 16.8
lowered CES-D score ([1]; 30 mg/day, fifth of six women, from 15): 7
lowered CES-D score ([1]; 30 mg/day, first of six women with above normal score at start, from 34): 7
lowered CES-D score ([1]; 30 mg/day, fourth of six women, from 19): 5
lowered CES-D score ([1]; 30 mg/day, second of six women, from 37): 8
lowered CES-D score ([1]; 30 mg/day, sixth of six women, from 15): 3
indicators of stress ([1]; 30 mg/day, stress-induced overeaters): reduces the indicators of stress
lowered CES-D score ([1]; 30 mg/day, third of six women, from 22): 9
Mood Scores CES-D ([1]; patient eleven, 30 mg/day, Month 4, baseline 19): 4
Mood Scores CES-D [1, 8]: 1
Mood Scores CES-D ([1]; patient ten, 75 rising to 150 mg/day, Month 4, baseline 8): 2
Mood Scores CES-D ([1]; patient three, 50 rising to 150 mg/day, Month 4, baseline 23): 17
Mood Scores CES-D ([1]; patient twelve, 75 then 100 mg/day, Month 4, baseline 29): 18
score on the appetite and hunger scale ([2]; during the treatment period, initial score 10.5): 5.0
ability of stressed overeaters to lose weight ([6]; 30 mg/day, four months, reduced-calorie meal plan): enhance the ability of stressed overeaters to lose weight; also recorded: promotes the ability to control food intake and to lose weight
weight at the end of 4 months ([6]; patient eleven, 30 mg/day, starting weight 90.0 kg): 82.6 kg
weight at the end of 4 months ([6]; patient eleven, 30 mg/day, starting weight 198 pounds): 181.7 pounds
weight after 4 months ([6]; patient six, 30 mg/day, starting weight 98.2 kg): 93.4 kg
weight after 4 months ([6]; patient six, 30 mg/day, starting weight 216 pounds): 205.5 pounds
weight after 4 months ([6]; patient ten, 75 rising to 150 mg/day, starting weight 83.6 kg): 76.8 kg
weight after 4 months ([6]; patient ten, 75 rising to 150 mg/day, starting weight 184 pounds): 169 pounds
weight after 4 months ([6]; patient three, 50 rising to 150 mg/day, starting weight 137.3 kg): 130 kg
weight after 4 months ([6]; patient three, 50 rising to 150 mg/day, starting weight 302 pounds): 286 pounds
weight at the end of 4 months ([6]; patient twelve, 75 then 100 mg/day, starting weight 90.0 kg): 82.6 kg
weight at the end of 4 months ([6]; patient twelve, 75 then 100 mg/day, starting weight 198 pounds): 182 pounds
tail pressure/tail pinch-induced eating [3]: decrease the eating behavior
DI50, inhibition of tail pressure-induced eating ([3]; reported by Garattini, quoted from Rowland et al.): 0.6 mg/kg
score on the emotional triggers to overeating report ([4]; 30 mg/day, end of the treatment period, from 23.4±9.8, ± standard deviations): 8.6±8.5
Emotional Triggers ([4]; patient eleven, 30 mg/day, Month 4, baseline 30): 7
Emotional Triggers [4, 9]: 4
Emotional Triggers ([4]; patient ten, 75 rising to 150 mg/day, Month 4, baseline 14): 2
Emotional Triggers ([4]; patient three, 50 rising to 150 mg/day, Month 4, baseline 34): 24
Emotional Triggers ([4]; patient twelve, 75 then 100 mg/day, Month 4, baseline 25): 3

N[C@@H](Cc1c[nH]c2ccc(O)cc12)C(=O)O [L-5-hydroxytryptophan]
stress induced depression [7, 10]: reduced depression
stress [7, 11]: decreased stress
stress induced high blood pressure [7, 11]: lower blood pressure
stress induced inability to concentrate [7, 12]: improved concentration
CES-D Mood Score [1, 10]: drops
CES-D Mood Score [1, 12]: drops
emotional triggers score [4, 10]: drops
emotional triggers score [4, 12]: drops

N[C@@H](Cc1c[nH]c2ccccc12)C(=O)O [L-tryptophan]
stress induced fatigue ([7]; Example 18, functional food, in conjunction with a stimulant of serotonin synthesis): reduced fatigue
stress as indicated by CES-D Mood Score and emotional triggers score [7, 13]: reduced stress
stress induced neck and back pain [7, 13]: reduced back and neck pain

From US6579899B1, “Composition for treatment of stress” (Massachusetts Institute of Technology, priority 1998, dated 2003)
